{"source": "patent US20230159436A1", "about": "“APPLICATIONS OF AMIDE ANALOGS OF TRITERPENES IN CURES OF CANCER AND OTHER DISEASES” (Pacific Arrow Limited, priority 2021, published 2023)", "key": {"[1]": {"test_system": "red blood cells (RBC)", "assay": "Haemolytic assay", "format": "cell-based, human", "procedure": "Erythrocytes (RBC) were isolated from human blood (EDTA whole blood, collected randomly). 50 ul of the 10% RBC suspension (in PBS) was added to 2 ml of sample solutions (concentration range from 0.1 ug/ml to 400 ug/ml) in PBS. The mixture was vortexed briefly and sat for 60 min at room temperature. The mixture was spun at 3K for 10 min and the relative amounts of lysed hemoglobin in the supernatant were measured at 540 nm. The synthetic compounds of present application were tested with this method."}, "[2]": {"test_system": "Capan cells", "assay": "MTT assay, pancreas (Capan)", "format": "cell-based, human", "procedure": "(§1) Cells. HTB-9 (bladder), HeLa-S3 (cervix), DU145 (prostate), H460 (lung), MCF-7 (breast), K562 (leukemia), HCT116 (colon), HepG2 (liver), U2OS (bone), T98G (brain), SK-MEL-5 (Skin) and OVCAR 3, ES2 (ovary), Pancreas (Capan), Mouth (KB), Kidney (A498).\n(§2) MTT Assay. The procedure for MTT assay followed the method described by Carmichael et al. (1987) with modifications. The cells were seeded into a 96-well plate at for 24 hours before drug-treatment. The cells were then exposed to the drugs for 48, 72, or 96 hours. After the drug-treatment, MTT (0.5 mg/mL) was added to cultures and incubated for an hour. The formazan (product of the reduction of tetrazolium by viable cells) formed and was dissolved with DMSO and the O.D. at 490 nm, and was measured by an ELISA reader. The MTT level of the cells before drug-treatment was also measured (T0). The % cell-growth (% G) is calculated as: % G=(TD−T0/TC−T0)×100(1), where TC or TD represents O.D. readings of control or drug-treated cells.\n(§3) When T0>TD, then the cytotoxicity (LC) expressed as % of the control is calculated as: % LC=(TD−T0/T0)×100(2).\nA. Cells: Capan cells are derived from Human pancreas carcinoma (pancreas). Cells were grew in RPMI 1640 medium supplemented with 10% FCS, antibiotics and glutamine. […]\nC. […] The percentage of drug-treated cells' growth as compared to those of the no drug control is determined."}, "[3]": {"test_system": "ES2 cells", "assay": "MTT assay, ovary (ES2)", "format": "cell-based, human", "procedure": "as §1, §2, §3\n(§4) Experiment 30: A Comparison of Non-Cancerous with Cancer Cells: • Method: A. Cells • WI38 is a Normal Lung fibroblast. Cells were grew in MEM medium supplemented with 10% FCS, antibiotics and glutamine. 20K cells were seeded per well (96-welled plate) for one day before drug-treatment • ES2 is a Ovary Clear cells carcinoma. Cells were grew in RPMI-1640 medium supplemented with 10% FCS, antibiotics and glutamine. 10K cells were seeded per well (96-welled plate) for one day before drug-treatment.\n(§5) B. Drug Treatment: • Drug: Tig-S. stored as 1000× stock solution in DMSO. • Drug concentration used: from 0.15-20 ug/ml. • Drug-treatment was carried out for 2 days (ES2) or 6 days (WI38). For the 6 days incubation, cells were fed with fresh medium (with drug) on day 3 and 5.\n(§6) C. At the End of the Drug-Treatment, Cytotoxic Test was Performed with MTT Assay."}, "[4]": {"test_system": "cancer growth, cancer invasion, cells invasion or cancer cell invasion", "assay": "Inhibition of cancer growth and invasion (anti-cancer activity)", "format": "cell-based", "text": "The program is based on the purification methods and biological assays including the MTT assay as described in International Application No. PCT/US05/31900, filed Sep. 7, 2005, U.S. Ser. No. 11/289,142, filed Nov. 28, 2005, and U.S. Ser. No. 11/131,551, filed May 17, 2005, and PCT/US2008/002086, 1188-ALA-PCT, filed Feb. 15, 2008, Ser. No. 12/344,682, 1020-B1-US, filed Dec. 29, 2008, US009499577B2, filed Jun. 24, 2014. The details of Analysis of gene expression of ES2 cells after Y-treatment by Microarray, Data Analysis Methods and Western blot in PCT/US2008/002086, 1188-ALA-PCT, filed Feb. 15, 2008, and the cell invasion experiments methods in International Application PCT/US2010/0042240, filed Jul. 16, 2010."}, "[5]": {"test_system": "WI38 cells", "assay": "MTT assay, normal lung fibroblast (WI38)", "format": "cell-based, human", "procedure": "as §2, §3, §4, §5, §6"}, "[6]": {"test_system": "H460 cells", "assay": "MTT assay, lung (H460)", "format": "cell-based, human", "procedure": "as §1, §2, §3\nA. Cells • H460 cells are derived from a Human Lung large cell carcinoma. Cells were grew in RPMI 1640 medium supplemented with 10% FCS, antibiotics and glutamine. 5000 cells were seeded in a well (96-welled plate) for one day before drug-treatment\nB. Drug Treatment: • Drug: Tig-S (stored as a 1000× stock solution in DMSO) was used. • Drug concentration used: from 0.15-20 ug/ml. • Drug-treatment was carried out for 1, 2 and 4 days. For the 4 days incubation, cells were fed with fresh medium (with drug) on day 2.\nC. At the end of the drug-treatment, cytotoxic test was performed with MTT assay."}, "[7]": {"test_system": "OVCAR3", "assay": "MTT assay, ovary (OVCAR3)", "format": "cell-based", "procedure": "as §1, §2, §3"}, "[8]": {"test_system": "T98G", "assay": "MTT assay, brain (T98G)", "format": "cell-based", "procedure": "as §1, §2, §3"}}, "note": "Values joined by “and” are separate entries in the source; they are usually repeats but may differ in a detail not shown here. Equal entries are not always repeated. Where two headings read alike, the source gives them in different places.", "data": [{"smiles": "CC=C(C)C(=O)OCC1(C)C(O)CCC2(C)C1CCC1(C)C2CC=C2C3CC(C)(C)C(O)C(O)C3(COC(=O)C(C)=CC)C(O)CC21C", "note": "(stereo not drawn) [Tig-R, 24,28-O-Tigloyl-3β,16α,21β,22α,24β,28-hexahydroxyolean-12-ene]", "values": [{"measurement": "hemolytic activity", "setting": "[1]", "value": "no hemolytic activity"}, {"measurement": "hemolytic activity", "setting": "[1]; up to 20 ug/ml", "value": "do not have hemolytic activity"}, {"measurement": "IC50 of pancreas (Capan)", "setting": "[2]", "value": 2.4, "unit": "µg/mL"}, {"measurement": "IC50 of ovary (ES2)", "setting": "[3]", "value": "2.8 ug/ml and about 2.8 ug/ml"}, {"measurement": "anti-cancer activity", "setting": "[4]", "value": "have anti cancer activities"}, {"measurement": "IC50 in normal human fibroblast cells (WI38)", "setting": "[5]", "value": "10 to 15", "unit": "µg/mL"}, {"measurement": "IC50 of lung (H460)", "setting": "[6]", "value": 4.8, "unit": "µg/mL"}, {"measurement": "IC50 of ovary (OVCAR3)", "setting": "[7]", "value": 5.8, "unit": "µg/mL"}, {"measurement": "IC50 of brain (T98G)", "setting": "[8]", "value": 8, "unit": "µg/mL"}]}, {"smiles": "CC=C(C)C(=O)OCC1(C)C(O)CCC2(C)C1CCC1(C)C2CC=C2C3CC(C)(C)C(OC(=O)C(C)=CC)C(O)C3(CO)C(O)CC21C", "note": "(stereo not drawn) [Tig-S]", "values": [{"measurement": "IC50, inhibition of pancreas cancer (Capan) cells' growth", "setting": "[2]; drug-treatment 3 days", "value": "about 1 ug/ml"}, {"measurement": "IC50, inhibition of ES2 cells", "setting": "[3]; 2 days", "value": 0.3, "unit": "µg/mL"}, {"measurement": "IC100 (100% inhibition of growth, no cell lost)", "setting": "[3]; ES2", "value": "0.16 to 0.3 µg/mL and 0.15 to 0.3 µg/mL"}, {"measurement": "% of the control cell growth", "setting": "[3]; ES2, at 10 ug/ml", "value": 10, "unit": "%"}, {"measurement": "MTT OD, % of the original value", "setting": "[3]; ES2, at 10 ug/ml", "value": 12, "unit": "%"}, {"measurement": "anti-cancer activity", "setting": "[4]", "value": "have anti cancer activities"}, {"measurement": "IC50, inhibition of WI38 cells", "setting": "[5]; 6 days", "value": 1.5, "unit": "µg/mL"}, {"measurement": "% of the control cell growth", "setting": "[5]; WI38, at 10 ug/ml", "value": "about 55%"}, {"measurement": "MTT OD, % of the original value", "setting": "[5]; WI38, at 20 ug/ml", "value": "about 90%"}, {"measurement": "cell lost or dead", "setting": "[5]; WI38, at 20 ug/ml", "value": "about 10%"}, {"measurement": "cells died", "setting": "[5]; WI38, with 10 ug/ml", "value": 10, "unit": "%"}, {"measurement": "IC50, inhibition of lung H460 cells growth", "setting": "[6]; 4 days", "value": 3, "unit": "µg/mL"}, {"measurement": "IC50, inhibition of H460 cells' growth", "setting": "[6]; Experiment 32, drug-treatment 1, 2 and 4 days", "value": 3, "unit": "µg/mL"}, {"measurement": "drug concentration beyond which minimum cells growth inhibition was observed", "setting": "[6]; H460", "value": "> 5", "unit": "µg/mL"}, {"measurement": "dead cells", "setting": "[6]; H460, drug concentration 20 ug/ml", "value": "No dead cell was found"}, {"measurement": "IC50, inhibition of lung H460 cells growth", "setting": "[6]; one day", "value": 3.4, "unit": "µg/mL"}, {"measurement": "IC50, inhibition of ovarian cancer (OCAR3) cells' growth", "setting": "[7]", "value": 2.5, "unit": "µg/mL"}, {"measurement": "IC50 of ovary (OVCAR3)", "setting": "[7]", "value": 6.5}]}]}
